From patent US7964598B2 (The J. David Gladstone Institutes, priority 1995, dated 2011)
Entries after “also recorded” stand apart in the source; their conditions may differ.

How the values were obtained:
[1] = system: apoE4 enhancement of Aβ production; test: Aβ production assay, B103-APP cells incubated with apoE4; type: cell-based, rat
Protocol: Aβ production assay. Stable neuroblastoma B103 cell lines transfected with a wildtype hAPP cDNA construct (B 103-APP) were selected by growing them in Dulbecco's modified Eagle's medium (DMEM) containing 10% fetal calf serum (FBS) and 400 μg/ml G418. A cell line expressing APP at similar levels in mouse brains has been identified by RNase protection assay (RPA) and was used in the studies described below. To determine Aβ production, B103-APP cells were incubated with serum-free minimal essential medium (MEM) containing N2 supplements with or without apoE isoforms for 24 h at 37° C. After incubation, 50 μl of medium was collected and assayed for Aβ levels with an ELISA method. The cells were lysed, and cellular proteins were determined by the Lowry method. AP production was normalized to cellular protein.
Cell Culture. Rat neuroblastoma B103 cells stably expressing human wildtype APP (hAPP695wt) (Xu et al. ((1999) Proc. Natl. Acad. Sci. USA 96:7547-7552; Esposito, et al. (2004) J. Neurochem. 91:1260-1274) were generated in Dr. Lennart Mucke's laboratory at the Gladstone Institute of Neurological Disease and maintained in Dulbecco's modified Eagle's medium (DMEM) (GIBCO, Grand Island, N.Y.) containing 400 μg/ml G418, 10% fetal bovine serum, and 5% horse serum at 37° C. Twenty-four hours after plating into 48-well plates (1×10^5 cells per well), cells were washed twice with serum-free DMEM and cultured for another 24 h in DMEM containing 1% N-2 supplement (GIBCO) to induce differentiation. The cells were treated with either β-VLDL (25 μg/ml cholesterol), recombinant human apoE isoform-enriched β-VLDL (7.5 μg/ml apoE and 25 μg/ml cholesterol), or recombinant human apoE (7.5 μg/ml apoE) in fresh DMEM containing 1% N-2 supplement for an additional 24 h. In some experiments, RAP (25 nM or 1 μM) was added to the cells 1 h before apoE treatment.
Aβ Assay. Aβ secreted into the medium was detected with a sandwich enzyme-linked immunosorbent assay (ELISA), using mAb 266 as a capturing antibody and 3D6 as a detecting antibody, as described. Johnson-Wood et al. ((1997) Proc. Natl. Acad. Sci. USA 94:1550-1555). Aβ was quantified from a standard curve (Aβ42; Bachem, Torrance, Calif.) and normalized by total cellular protein.

B103 cells = test: Toxicity to B103 cells; type: cell-based, rat; conditions: at the micromole level
Water solubility = type: physicochemical
YFP-apoE4-CFP = biological target: T1, YFP-apoE4-CFP (Homo sapiens, UniProt P02649, C130R); test: Cell-based FRET assay, YFP-apoE4-CFP; conditions: 5-20 μM
T1 construct: vector signal peptide (pFLAG-CMV3) (N); FLAG (N); expressed in transfected cells
Source text: (§1) Xu et al. (2004) J. Biol. Chem. 279:25511-25516. FRET—the non-radioactive transfer of photon energy from an excited fluorophore (donor) to another fluorophore (acceptor)—occurs only when the donor and acceptor are in close proximity (<100 Å). Thus, this approach can be used to measure nanometer scale distances.
(§2) Xu et al. (2004) J. Biol. Chem. 279:25511-25516. The constructs are depicted schematically in FIG. 29.
(§3) Since the emission spectrum of CFP (460-520 nm) overlaps with the excitation spectrum of YFP (480-520 nm), FLEXstation (Molecular Devices) can be used to measure FRET in living cells expressing YFP-apoE3-CFP or YFP-apoE4-CFP in a high throughput manner. […] Thus, the ratio of FRET to CFP emission in cells expressing YFP-apoE4-CFP is much higher than that in those expressing YFP-apoE3-CFP (FIG. 31). […] Since the FLEXstation can read FRET in both cells and the culture media treated without or with various small molecules, this assay allows one to know whether a small molecule affects apoE4 domain interaction only in the medium (“medium FRET”) or also inside the cell (“intracellular FRET”). In addition, after measurement of the intracellular FRET, the cells can be incubated further with MTT to determine the cytotoxicity of the compound. Thus, the cell-based FRET assay can simultaneously provide three sets of data-intracellular FRET, medium FRET, and cytotoxicity.
(§4) Quantifying FRET in Transfected Neuro-2a Cells—Stably transfected Neuro-2a cells expressing YFP-apoE3-CFP or YFP-apoE4-CFP at similar levels were selected by fluorescence activated cell sorter (FACS). YFP and CFP images of transfected cells were acquired with the Meta Detector, and their fluorescence intensities were analyzed with the mounted computer. The FRET signal was calculated as the ratio of YFP to CFP fluorescence intensity under CFP excitation. For each YFP-apoE-CFP construct, the FRET signal was measured in at least 12 cells from different fields.
(§5) Quantifying FRET in the Culture Medium—Neuro-2a cells stably expressing YFP-apoE3-CFP or YFP-apoE4-CFP and wildtype cells were grown in T175 flasks to 90% confluence and incubated with serum-free minimum essential medium containing N2 supplement for 24 h. The conditioned medium (20 ml/flask) was concentrated about 20-fold with Centriplus-YM-10 concentrators (Amicon, Bedford, Mass.), dialyzed against PBS, illuminated at the CFP excitation wavelength (430 nm), and scanned for emission spectrum. The FRET signal was calculated as the ratio of emission at 525 nm (YFP) to that at 475 nm (CFP). Conditioned medium from cells expressing apoE3-CFP or apoE4-CFP was used to determine baseline fluorescence in the absence of FRET.

YFP-apoE3-CFP = biological target: T2, YFP-apoE3-CFP (Homo sapiens, UniProt P02649); test: Cell-based FRET assay, YFP-apoE3-CFP
T2 construct: vector signal peptide (pFLAG-CMV3) (N); FLAG (N); expressed in transfected cells
Source text: as §1, §2, §3, §4, §5

T2 sequence (P02649 19-317): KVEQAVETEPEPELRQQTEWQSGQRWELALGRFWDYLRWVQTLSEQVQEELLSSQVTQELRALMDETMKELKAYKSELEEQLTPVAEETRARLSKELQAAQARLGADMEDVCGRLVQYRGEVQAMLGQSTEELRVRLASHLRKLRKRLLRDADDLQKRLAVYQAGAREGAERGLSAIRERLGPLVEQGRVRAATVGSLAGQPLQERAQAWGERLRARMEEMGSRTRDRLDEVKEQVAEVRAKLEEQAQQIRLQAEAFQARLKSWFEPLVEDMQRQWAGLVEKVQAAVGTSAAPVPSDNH
T1 sequence (P02649 19-317 C130R): as the sequence (P02649 19-317) above, with C112R counted along it

In the case of `O=S(=O)([O-])c1ccc2c(c1)c(Nc1ccc(S(=O)(=O)O)cc1)cc1c2nc2ccccc2[n+]1-c1ccccc1` [GIND-25, azocarmine-G], the “apoE4 enhancement of Aβ production” value ([1]; FIG. 22) is reported as “abolished completely”, the “enhancement of Aβ production by apoE4” value ([1]; compound 5 μM preincubated with apoE 7.5 μg/ml 30 min, then 24 h with cells, FIG. 27D) is reported as “abolish; also recorded: decreased Aβ production induced by apoE4 to levels similar to those induced by apoE3” and the “toxicity to B103 cells” value (B103 cells) is reported as “no significant toxicity”. The water solubility (Water solubility) was “water-soluble”, the “ratio of FRET to CFP emission in the cells expressing YFP-apoE4-CFP” value (YFP-apoE4-CFP; intracellular) was “decreased significantly” and the “ratio of FRET to CFP emission in media of YFP-apoE4-CFP cells” value (YFP-apoE4-CFP; medium) was “decreased significantly”. The “ratio of FRET to CFP emission in cells expressing YFP-apoE3-CFP” value (YFP-apoE3-CFP; intracellular) was “none of these compounds altered significantly” and the “ratio of FRET to CFP emission in media of YFP-apoE3-CFP cells” value (YFP-apoE3-CFP; medium) was “none of these compounds altered significantly”.
